Reference: patent US20050267096A1, “New indazole and indolone derivatives and their use pharmaceuticals” (Pfizer Inc, priority 2004, published 2005)

How the values were obtained:
dopamine D2 receptor = dopamine D2 receptor (Homo sapiens, UniProt P14416); experiment: D3/D2 agonist assay, functional response at D2 receptor; format: cell-based; settings: at 1000 nM; relative to the maximal effect of pramipexole
Protocol: (§1) Activity at the dopamine D3 receptor may be determined using the methods described in WO 2004/052372. […] Selectivity is calculated as the D2 EC50 value divided by the D3 EC50 value. Where the value of the D2 EC50 was >10000, a figure of 10000 was used in the calculation.
(§2) Against the D2 receptor this compound gave only a 28% repsonse (relative to the maximal effect of pramipexole) at 1000 nM. Suitable auxiliary active agents for use in the combinations of the present invention include: • 1) Naturally occurring or synthetic prostaglandins or esters thereof. Suitable prostaglandins for use herein include compounds such as alprostadil, prostaglandin E1, prostaglandin E0, 13,14-dihydroprosta glandin E1, prostaglandin E2, eprostinol, natural synthetic and semi-synthetic prostaglandins and derivatives thereof including those described in WO-00033825 and/or U.S. Pat. No. 6,037,346 issued on 14 Mar. 2000 all incorporated herein by reference, PGE0, PGE1, PGA1, PGB1, PGF1 α, 19-hydroxy PGA1, 19-hydroxy-PGB1, PGE2, PGB2, 19-hydroxy-PGA2, 19-hydroxy-PGB2, PGE3α, carboprost tromethamine dinoprost, tromethamine, dinoprostone, lipo prost, gemeprost, metenoprost, sulprostune, tiaprost and moxisylate; • 2) α-adrenergic receptor antagonist compounds also known as α-adrenoceptors or α-receptors or α-blockers. […]

dopamine D3 receptor = dopamine D3 receptor (Homo sapiens, UniProt P35462); experiment: D3/D2 agonist assay, functional potency at D3 receptor; format: cell-based
Protocol: as §1, §2

dopamine D3 receptor, sequence (P35462 whole entry, species assumed): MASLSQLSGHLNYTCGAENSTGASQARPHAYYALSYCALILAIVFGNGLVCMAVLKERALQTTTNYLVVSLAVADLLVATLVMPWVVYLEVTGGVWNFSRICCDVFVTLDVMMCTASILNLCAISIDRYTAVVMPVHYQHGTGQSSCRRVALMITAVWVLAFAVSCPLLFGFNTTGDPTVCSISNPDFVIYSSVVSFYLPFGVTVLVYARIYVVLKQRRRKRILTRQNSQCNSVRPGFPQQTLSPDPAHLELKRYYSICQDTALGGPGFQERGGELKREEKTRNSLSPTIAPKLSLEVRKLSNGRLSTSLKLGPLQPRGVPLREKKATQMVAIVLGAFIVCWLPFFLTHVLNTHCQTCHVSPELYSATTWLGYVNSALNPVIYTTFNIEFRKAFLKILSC
dopamine D2 receptor, sequence (P14416 whole entry): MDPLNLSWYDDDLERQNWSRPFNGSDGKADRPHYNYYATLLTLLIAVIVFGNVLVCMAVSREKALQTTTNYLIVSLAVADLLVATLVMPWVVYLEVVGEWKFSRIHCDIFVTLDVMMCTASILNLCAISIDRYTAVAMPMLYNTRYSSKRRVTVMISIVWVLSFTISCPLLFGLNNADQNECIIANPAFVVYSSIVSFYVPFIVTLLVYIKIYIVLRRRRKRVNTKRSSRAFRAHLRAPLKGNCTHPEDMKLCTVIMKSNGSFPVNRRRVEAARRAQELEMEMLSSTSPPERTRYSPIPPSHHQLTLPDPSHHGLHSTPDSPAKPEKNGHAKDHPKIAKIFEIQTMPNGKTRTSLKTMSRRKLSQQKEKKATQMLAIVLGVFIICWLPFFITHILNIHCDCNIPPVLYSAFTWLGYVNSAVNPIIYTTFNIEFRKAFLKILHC

For `CCCN1CC(c2cccc3[nH]ncc23)C1` [Example 13, 4-(1-propylazetidin-3-yl)-1H-indazole], the “response against the D2 receptor” value (dopamine D2 receptor) was 28%, the EC50 (dopamine D3 receptor; methods described in WO 2004/052372, read-out: functional potency at the D3 receptor, expressed as an EC50) was 38 nM and the Emax (dopamine D3 receptor; relative to the maximal effect of standard agent pramipexole, read-out: Emax (maximal response value) at the D3 receptor) was 74%.
